Converted amounts (≈) assume the structure as drawn.

Series [1] can be described thus: physchem. The following applies: solubility of paracetamol. Here is the method: The solubility of paracetamol in various solvents, such as glycofurol, PEG, ethanol, and propylene glycol were determined by us. […] The challenge lies in tailoring the appropriate solvent system to provide injectables containing paracetamol in 166 mg/ml to 250 mg/ml so that the therapeutic dose of paracetamol (500 mg) can be delivered in 2 to 3 ml without compromising in viscosity of these injectables.

Series [2] can be described thus: Viscosity of paracetamol injectable solutions. The following applies: solution in glycofurol at concentration of 205 mg/ml. Format: physicochemical. Here is the method:
The solitary prior art in which the solution of paracetamol ranging from 60 mg/ml (6% w/v) to 150 mg/ml (15% w/v) have been prepared in glycofurol:ethanol:water (about 44:10:46 or about 4:1:4) and glycofurol: water (48:52 or about 1:1). […] 5 CPS and 14.8 CPS respectively. It is to be noted that the concentrations of the solutions reported in the said prior art is between 60 mg/ml to 150 mg/ml.

With `CC(=O)Nc1ccc(O)cc1` [paracetamol, p-acetylaminophenol], the figures for the solubility in series [1] (organic solvent or mixture) and in series [1] (water) were ~205 mg/mL (≈ 1360 mM) and ~14 mg/mL (≈ 92.6 mM), respectively. Moreover, the “viscosity of the paracetamol solution” value in series [2] is “about 57 CPS”.
